{
  "source": "paper PMC8119899",
  "about": "“A Single Mutation in the Outer Lipid-Facing Helix of a Pentameric Ligand-Gated Ion Channel Affects Channel Function Through a Radially-Propagating Mechanism” (Frontiers in Molecular Biosciences, 2021)",
  "key": {"5-HT3A receptor D238A": {"target": "T1, 5-HT3A receptor D238A (Mus musculus, UniProt P23979, D265A)", "T1 sequence (P23979 24-489 D265A)": "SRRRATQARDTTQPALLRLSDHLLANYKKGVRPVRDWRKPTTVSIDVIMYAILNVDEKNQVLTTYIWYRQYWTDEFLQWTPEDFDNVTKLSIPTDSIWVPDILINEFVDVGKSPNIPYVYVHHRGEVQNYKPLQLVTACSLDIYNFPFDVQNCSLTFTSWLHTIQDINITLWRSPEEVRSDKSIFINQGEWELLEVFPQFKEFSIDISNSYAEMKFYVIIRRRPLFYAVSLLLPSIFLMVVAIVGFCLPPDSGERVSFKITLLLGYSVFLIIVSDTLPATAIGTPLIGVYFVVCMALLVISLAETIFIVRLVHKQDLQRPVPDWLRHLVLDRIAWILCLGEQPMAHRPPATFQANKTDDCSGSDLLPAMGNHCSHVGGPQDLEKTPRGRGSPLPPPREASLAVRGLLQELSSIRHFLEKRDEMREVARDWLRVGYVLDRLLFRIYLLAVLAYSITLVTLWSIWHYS", "assay": "Two-electrode voltage clamp, 5-HT response, D238A receptor in Xenopus oocytes", "format": "cell-based", "parameters": "key: Mutants that did not respond in the functional assay are marked as non functional (NF)", "experimental": "(§1) The mouse 5-HT3A cDNA (Q6J1J7) in pcDNA3.1 (for HEK cell transfection) or pGEMHE (for RNA production) was modified by QuikChange site-directed mutagenesis (Agilent Technologies) to create point mutants (verified by sequencing).\nXenopus laevis oocytes from EcoCyte Biosciences (Austin Texas) were injected with 100 pg cRNA (generated with the ThermoFisher mMESSAGE mMACHINE T7 transcription kit) and left in injection media [88 mM NaCl, 2.4 mM NaHCO3, 1 mM KCl, 0.82 mM MgSO4 ·7H20, 5 mM Tris-HCl, 0.33 mM Ca(NO3)2·4H2O, 0.41 mM CaCl2·2H2O, 2.51 mM sodium pyruvate, 0.12 mg/ml theophylline, 0.05 mg/ml gentamicin, pH 7.5] at 16 °C for 24 h. […] The holding potential was −60 mV, using glass microelectrodes with a resistance of approximately 1 MΩ backfilled with 3M KCl."}, "5-HT3A receptor C290A": {"target": "T2, 5-HT3A receptor C290A (Mus musculus, UniProt P23979, C317A)", "T2 sequence (P23979 24-489 C317A)": "T1 sequence (P23979 24-489 D265A) with A242D, C294A", "assay": "FlexStation membrane potential dye, 5-HT response, C290A receptor in HEK293 cells", "format": "cell-based", "parameters": "expressed in transfected cells; host or cells: HEK293", "conditions": "mean and SEM, n ≥ 3", "experimental": "as §1\n(§2) Human embryonic kidney (HEK) 293 cells were maintained at 37 °C at 5% CO2 in a humidified atmosphere, in Dulbecco's Modified Eagle's Medium/Nutrient Mix F12 (1:1) (Invitrogen, Paisley, UK) with GlutaMAX^TM and 10% fetal bovine serum (GE Healthcare) (DMEM/FBS) and passaged when confluent.\n(§3) As described previously (Price and Lummis, [2005]) cells were incubated for 45 min with fluorescent membrane potential-sensitive dye (Membrane Potential Blue kit, Molecular Devices) diluted in Flex buffer (10 mM HEPES, 115 mM NaCl, 1 mM KCl, 1 mM CaCl2, 1 mM MgCl2, and 10 mM glucose, pH 7.4), and subsequently assayed at room temperature for 180 s, with readings every 2 s. […] (log of the concentration of ligand), a is the minimum response, b is the maximum response, and nH is the Hill slope."}, "5-HT3A receptor Y441A": {"target": "T3, 5-HT3A receptor Y441A (Mus musculus, UniProt P23979, Y468A)", "T3 sequence (P23979 24-489 Y468A)": "T1 sequence (P23979 24-489 D265A) with A242D, Y445A", "parameters": "expressed in transfected cells; method as in Mesoy et al., [2019]", "conditions": "HEK293 cells, ref Mesoy et al., [2019]; cited from earlier work"}, "5-HT3A receptor F242A": {"target": "T4, 5-HT3A receptor F242A (Mus musculus, UniProt P23979, F269A)", "T4 construct": "expressed in transfected cells; host or cells: HEK293", "T4 sequence (P23979 24-489 F269A)": "T1 sequence (P23979 24-489 D265A) with A242D, F246A", "assay": "FlexStation membrane potential dye, 5-HT response, F242A receptor in HEK293 cells", "format": "cell-based", "conditions": "mean and SEM, n ≥ 3", "experimental": "as §1, §2, §3"}},
  "note": "Positions count from the first letter of the chain named.",
  "data": [
    {"smiles": "NCCc1c[nH]c2ccc(O)cc12", "note": "[5-HT]", "values": [
      {"measurement": "pEC50", "setting": "5-HT3A receptor D238A", "value": "NF"},
      {"measurement": "nH", "setting": "5-HT3A receptor C290A", "value": "1.2 ± 0.2"},
      {"measurement": "response to application of 5-HT", "setting": "5-HT3A receptor Y441A", "value": "Neither Y441A nor D238A responded"},
      {"measurement": "nH", "setting": "5-HT3A receptor F242A", "value": "3.8 ± 0.8"}
    ]}
  ]
}
